According to US20240366589A1, “NHE3-BINDING COMPOUNDS AND METHODS FOR INHIBITING PHOSPHATE TRANSPORT” (Ardelyx, Inc., priority 2013, published 2024):

Columns and labels:
[1] = biological target: T1, Rat NHE3 (Rattus norvegicus, UniProt P26433); assay: Cell-based NHE3 activity under prompt conditions (OK cells, BCECF pH recovery), rat NHE3; conditions: prompt conditions
T1 construct: expressed in transfected cells; host or cells: Opossum kidney (OK) cells (ATCC), electroporation
Procedure, shortened: (§1)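 OK cells electroporated with rat or human NHE3 gene, loaded 30 min at room temperature with 5 μM BCECF-AM in NH4Cl-HEPES pH 7.4.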

[2] = biological target: T2, Human NHE3 (Homo sapiens, UniProt P48764); assay: Cell-based NHE3 activity under prompt conditions (OK cells, BCECF pH recovery), human NHE3; conditions: prompt conditions
T2 construct: expressed in transfected cells; host or cells: Opossum kidney (OK) cells (ATCC), electroporation
T2 sequence (P48764 26-834): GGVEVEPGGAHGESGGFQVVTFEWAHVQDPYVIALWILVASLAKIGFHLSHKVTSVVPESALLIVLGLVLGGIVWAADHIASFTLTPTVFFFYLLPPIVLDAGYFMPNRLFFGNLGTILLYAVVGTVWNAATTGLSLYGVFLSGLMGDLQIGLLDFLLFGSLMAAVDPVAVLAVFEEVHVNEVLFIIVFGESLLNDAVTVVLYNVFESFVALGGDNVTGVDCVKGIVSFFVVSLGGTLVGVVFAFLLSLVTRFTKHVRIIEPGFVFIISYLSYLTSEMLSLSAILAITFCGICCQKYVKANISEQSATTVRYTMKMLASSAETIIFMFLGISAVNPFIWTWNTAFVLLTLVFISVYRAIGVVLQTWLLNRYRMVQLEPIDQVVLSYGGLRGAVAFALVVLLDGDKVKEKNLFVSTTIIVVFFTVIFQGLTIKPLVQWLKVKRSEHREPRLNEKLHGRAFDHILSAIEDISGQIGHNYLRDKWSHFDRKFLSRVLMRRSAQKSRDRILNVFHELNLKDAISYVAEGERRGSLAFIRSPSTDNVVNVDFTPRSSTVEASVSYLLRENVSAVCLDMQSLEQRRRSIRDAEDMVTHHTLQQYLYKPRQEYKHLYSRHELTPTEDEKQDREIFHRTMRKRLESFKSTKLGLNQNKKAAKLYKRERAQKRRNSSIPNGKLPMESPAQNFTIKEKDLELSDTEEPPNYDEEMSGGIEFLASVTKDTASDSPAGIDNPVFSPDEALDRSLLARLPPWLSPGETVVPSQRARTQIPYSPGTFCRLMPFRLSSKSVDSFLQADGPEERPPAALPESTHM
Procedure, shortened: as §1

[3] = test system: absorption of sodium from the intestinal lumen; assay: Inhibition of intestinal sodium absorption: urinary sodium (uNa) 16 h after single oral dose in rats; format: in vivo, rat; conditions: oral gavage, 16 h post-dose
Procedure, shortened: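 Eight-week-old Sprague-Dawley rats (n=6) given single oral gavage of compound or water vehicle in the late afternoon, then kept in metabolic cages with chow and water ad libitum. Urine collected over 16 h; sodium quantified by ion chromatography and expressed as % of vehicle mean, compared by one-way ANOVA with Dunnett's test.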

[4] = test system: absorption of sodium from the intestinal lumen; assay: Fecal form score (FFS) 16 h after oral dose in rats; format: in vivo, rat; conditions: oral gavage, 16 h post-dose, scale 1-5
Procedure, shortened: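 Eight-week-old Sprague-Dawley rats (n=6) dosed by oral gavage with compound or water vehicle between 4 and 5 PM, then housed in metabolic cages with food and water ad libitum. At 16 h, fecal form scored 1 (normal pellet) to 5 (liquid streams) by two observers; group mean reported.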

[5] = test system: phosphorus and calcium levels in the urine of rats; assay: Urinary excretion of phosphate and calcium in rats (16 h overnight urine); format: in vivo, rat; conditions: rats, oral gavage, 16 h post-dose

T1 sequence (P26433 29-831): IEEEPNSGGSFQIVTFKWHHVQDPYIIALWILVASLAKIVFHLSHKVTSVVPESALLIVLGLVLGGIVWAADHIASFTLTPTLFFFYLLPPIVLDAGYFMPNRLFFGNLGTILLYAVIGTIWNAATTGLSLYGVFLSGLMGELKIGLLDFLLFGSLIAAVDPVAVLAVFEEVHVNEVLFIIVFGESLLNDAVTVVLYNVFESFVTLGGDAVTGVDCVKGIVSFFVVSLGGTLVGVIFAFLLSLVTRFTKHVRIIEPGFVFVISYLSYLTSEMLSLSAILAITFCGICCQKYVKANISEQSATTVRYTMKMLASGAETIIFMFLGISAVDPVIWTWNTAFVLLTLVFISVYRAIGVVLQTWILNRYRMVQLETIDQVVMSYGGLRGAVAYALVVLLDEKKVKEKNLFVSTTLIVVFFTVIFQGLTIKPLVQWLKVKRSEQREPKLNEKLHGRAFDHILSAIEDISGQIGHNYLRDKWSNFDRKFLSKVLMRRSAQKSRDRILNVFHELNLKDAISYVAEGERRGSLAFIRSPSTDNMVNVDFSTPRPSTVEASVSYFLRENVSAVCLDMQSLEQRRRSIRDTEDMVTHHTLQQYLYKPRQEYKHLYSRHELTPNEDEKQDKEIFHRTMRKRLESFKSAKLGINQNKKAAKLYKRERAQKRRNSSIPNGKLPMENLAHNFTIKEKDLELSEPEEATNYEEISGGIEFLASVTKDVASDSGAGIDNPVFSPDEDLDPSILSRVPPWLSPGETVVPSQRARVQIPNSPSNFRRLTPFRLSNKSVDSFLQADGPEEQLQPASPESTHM

Compound | Prompt Rat NHE3 pIC50 [1] | Prompt Human NHE3 pIC50 [2] | IC50 ([1]; read-out: Prompt Rat NHE3 pIC50 (converted)) [nM] | Urine Na % of control ([3]; dose 10 mg/kg) [%] | Urine Na % of control ([3]; dose 30 mg/kg) [%] | Fecal Form Score average ([4]; dose 10 mg/kg) | Fecal Form Score average ([4]; dose 30 mg/kg) | Urine P % of control ([5]; dose 10 mg/kg) [%] | Urine P % of control ([5]; dose 30 mg/kg) [%] | Urine Na % of control ([3]; dose 3 mg/kg) [%] | Fecal Form Score average ([4]; dose 3 mg/kg) | Urine P % of control ([5]; dose 3 mg/kg) [%]
NCCOCCOCCN1CCN(c2ccc(-c3nc(N=C(N)N)nc4ccc(Cl)cc34)cc2)CC1 [compound 19] | 7.00 | 7.40 | – | 72 | – | 1 | – | 119 | – | – | – | –
CN1Cc2c(Cl)cc(Cl)cc2[C@H](c2cccc(S(=O)(=O)N(C)CCOCCOCCNC(=O)CCN(CCC(=O)NCCOCCOCCN(C)S(=O)(=O)c3cccc([C@@H]4CN(C)Cc5c(Cl)cc(Cl)cc54)c3)CCC(=O)NCCOCCOCCN(C)S(=O)(=O)c3cccc([C@@H]4CN(C)Cc5c(Cl)cc(Cl)cc54)c3)c2)C1 [compound 134] | 6.50 | 6.50 | – | – | – | – | – | – | – | 64 | 1 | 72
CN1Cc2c(Cl)cc(Cl)cc2[C@H](c2cccc(S(=O)(=O)NCCOCCOCCNC(=O)CCC(CCC(=O)NCCOCCOCCNS(=O)(=O)c3cccc([C@@H]4CN(C)Cc5c(Cl)cc(Cl)cc54)c3)(CCC(=O)NCCOCCOCCNS(=O)(=O)c3cccc([C@@H]4CN(C)Cc5c(Cl)cc(Cl)cc54)c3)NC(=O)Cn3ccnc3)c2)C1 [compound 154] | 6.80 | 6.80 | – | – | – | – | – | – | – | 112 | 1 | 65
CN1Cc2c(Cl)cc(Cl)cc2[C@H](c2cccc(S(=O)(=O)NCCOCCOCCOCCNC(=O)CN3CCN(c4nc(N5CCN(CC(=O)NCCOCCOCCOCCNS(=O)(=O)c6cccc([C@@H]7CN(C)Cc8c(Cl)cc(Cl)cc87)c6)CC5)nc(N5CCN(CC(=O)NCCOCCOCCOCCNS(=O)(=O)c6cccc([C@@H]7CN(C)Cc8c(Cl)cc(Cl)cc87)c6)CC5)n4)CC3)c2)C1 [compound 69] | 6.60 | 6.70 | – | 82 | – | 1 | – | 78 | – | – | – | –
CNC(=O)NC(CCC(=O)NCCOCCOCCNS(=O)(=O)c1cccc([C@@H]2CN(C)Cc3c(Cl)cc(Cl)cc32)c1)(CCC(=O)NCCOCCOCCNS(=O)(=O)c1cccc([C@@H]2CN(C)Cc3c(Cl)cc(Cl)cc32)c1)CCC(=O)NCCOCCOCCNS(=O)(=O)c1cccc([C@@H]2CN(C)Cc3c(Cl)cc(Cl)cc32)c1 [compound 130] | 6.10 | 7.20 | – | – | – | – | – | – | – | 18 | 2 | 70
CN1Cc2c(Cl)cc(Cl)cc2[C@H](c2cccc(S(=O)(=O)NCCOCCOCCNC(=O)CCC(=O)NCCOCCOCCNS(=O)(=O)c3ccc(O[C@H]4c5ccccc5C[C@@H]4N4CCCCC4)cc3)c2)C1 [compound 96] | 7.50 | 8.30 | – | 33 | – | 1 | – | 94 | – | – | – | –
CN(CC(=O)NCCOCCOCCOCCN1CCN(c2ccc(-c3nc(NC(=N)N)nc4ccc(Cl)cc34)cc2)CC1)CC(=O)NCCOCCOCCOCCN1CCN(c2ccc(-c3c(Cl)ccc4nc(NC(=N)N)ncc34)cc2)CC1 [compound 21] | – | 7.00 | 794 | 66 | – | 1 | – | 101 | – | – | – | –
CN1Cc2c(Cl)cc(Cl)cc2[C@H](c2cccc(S(=O)(=O)NCCOCCOCCNC(=O)CCC(CCC(=O)NCCOCCOCCNS(=O)(=O)c3cccc([C@@H]4CN(C)Cc5c(Cl)cc(Cl)cc54)c3)(CCC(=O)NCCOCCOCCNS(=O)(=O)c3cccc([C@@H]4CN(C)Cc5c(Cl)cc(Cl)cc54)c3)NC(=O)NCCS(=O)(=O)O)c2)C1 [compound 157] | 7.70 | 7.77 | – | – | – | – | – | – | – | 26 | 3 | 50
CN1Cc2c(Cl)cc(Cl)cc2[C@H](c2cccc(S(=O)(=O)NCCOCCOCCNC(=O)NCCCC(CCCNC(=O)NCCOCCOCCNS(=O)(=O)c3cccc([C@@H]4CN(C)Cc5c(Cl)cc(Cl)cc54)c3)(CCCNC(=O)NCCOCCOCCNS(=O)(=O)c3cccc([C@@H]4CN(C)Cc5c(Cl)cc(Cl)cc54)c3)NC(=O)COCC(=O)O)c2)C1 [compound 161] | 9.20 | 7.60 | – | – | – | – | – | – | – | 82 | 2 | 60

Continued, in another order:

Prompt Rat NHE3 pIC50 [1] | Prompt Human NHE3 pIC50 [2] | IC50 ([1]; read-out: Prompt Rat NHE3 pIC50 (converted)) [nM] | Compound | Urine Na % of control ([3]; dose 10 mg/kg) [%] | Urine Na % of control ([3]; dose 30 mg/kg) [%] | Fecal Form Score average ([4]; dose 10 mg/kg) | Fecal Form Score average ([4]; dose 30 mg/kg) | Urine P % of control ([5]; dose 10 mg/kg) [%] | Urine P % of control ([5]; dose 30 mg/kg) [%] | Urine Na % of control ([3]; dose 3 mg/kg) [%] | Fecal Form Score average ([4]; dose 3 mg/kg) | Urine P % of control ([5]; dose 3 mg/kg) [%]
6.90 | 7.85 | – | C/C(=C\c1cc(F)c(Oc2ccc(S(=O)(=O)NCCOCCOCCOCCNC(=O)[C@H](O)[C@@H](O)C(=O)NCCOCCOCCOCCNS(=O)(=O)c3ccc(Oc4c(F)cc(/C=C(\C)C(=O)N=C(N)N)cc4F)cc3)cc2)c(F)c1)C(=O)N=C(N)N [compound 5] | 51 | 23 | 1 | 2 | 65 | 105 | – | – | –
7.80 | 7.90 | – | NC(N)=Nc1nc(-c2ccc(N3CCN(CCOCCOCCOCCNC(=O)NCCOCCOCCNC(=O)CN(CCN(CC(=O)O)CC(=O)NCCOCCOCCNC(=O)NCCOCCOCCOCCN4CCN(c5ccc(-c6nc(N=C(N)N)nc7ccc(Cl)cc67)cc5)CC4)CC(=O)O)CC3)cc2)c2cc(Cl)ccc2n1 [compound 46] | 58 | – | 1 | – | 112 | – | – | – | –
7.40 | 8.20 | – | CN1Cc2c(Cl)cc(Cl)cc2[C@H](c2cccc(S(=O)(=O)NCCOCCOCCOCCNC(=O)NCCCN(CCCNC(=O)NCCOCCOCCOCCNS(=O)(=O)c3cccc([C@@H]4CN(C)Cc5c(Cl)cc(Cl)cc54)c3)CCCNC(=O)NCCOCCOCCOCCNS(=O)(=O)c3cccc([C@@H]4CN(C)Cc5c(Cl)cc(Cl)cc54)c3)c2)C1 [compound 64] | 34 | – | 1 | – | 66 | – | – | – | –
7.65 | 7.40 | – | O=C(O)CN(CCN(CC(=O)O)CC(=O)NCCOCCOCCOCCNS(=O)(=O)c1ccc(OC2c3ccccc3CC2N2CCCCC2)cc1)CC(=O)NCCOCCOCCOCCNS(=O)(=O)c1ccc(OC2c3ccccc3CC2N2CCCCC2)cc1 (centres unmarked) [compound 49] | 38 | – | 1 | – | 77 | – | – | – | –
<5.00 | 7.70 | – | CN(C)[C@H]1Cc2ccc(F)cc2[C@@H]1Oc1ccc(S(=O)(=O)NCCOCCOCCNC(=O)NCCCCNC(=O)NCCOCCOCCNS(=O)(=O)c2ccc(O[C@H]3c4cc(F)ccc4C[C@@H]3N(C)C)cc2)cc1 [compound 136] | 104 | – | 1 | – | 93 | – | – | – | –
7.10 | 7.50 | – | CN1Cc2c(Cl)cc(Cl)cc2[C@H](c2cccc(S(=O)(=O)NCCOCCOCCOCCNC(=O)CN(CC(=O)NCCOCCOCCOCCNS(=O)(=O)c3cccc([C@@H]4CN(C)Cc5c(Cl)cc(Cl)cc54)c3)CC(=O)NCCOCCOCCOCCNS(=O)(=O)c3cccc([C@@H]4CN(C)Cc5c(Cl)cc(Cl)cc54)c3)c2)C1 [compound 57] | 25 | – | 3 | – | 75 | – | – | – | –
7.50 | 7.70 | – | C/C(=C\c1cc(F)c(Oc2ccc(S(=O)(=O)NCCOCCOCCOCCNC(=O)OCCOCCOCCOC(=O)NCCOCCOCCOCCNS(=O)(=O)c3ccc(Oc4c(F)cc(/C=C(\C)C(=O)N=C(N)N)cc4F)cc3)cc2)c(F)c1)C(=O)N=C(N)N [compound 26] | 78 | – | 1 | – | 77 | – | – | – | –
